Measured values taken from patent US20130281399A1, “TREATMENT OF DISEASES BY EPIGENETIC REGULATION” (RVX Therapeutics Inc., priority 2012, published 2013).

Legend:
Brd4 bromodomain 1 = molecular target: T1, Brd4 bromodomain 1 (Homo sapiens, UniProt O60885); assay: Inhibition of binding of tetra-acetylated histone H4 to Brd4 bromodomain 1 (TR-FRET); conditions: His-tagged Brd4 bromodomain 1 200 nM, tetra-acetylated histone H4 peptide 25-50 nM, 2 hours room temperature
T1 construct: made in house; host or cells: E. coli BL21(DE3)
Experimental: Proteins were cloned and overexpressed with a N-terminal 6×His tag, then purified by nickel affinity followed by size exclusion chromatography. Briefly, E. coli BL21(DE3) cells were transformed with a recombinant expression vector encoding N-terminally Nickel affinity tagged bromodomains from Brd2, Brd3, Brd4. Cell cultures were incubated at 37° C. with shaking to the appropriate density and induced overnight with IPTG. The supernatant of lysed cells was loaded onto Ni-IDA column for purification. Eluted protein was pooled, concentrated and further purified by size exclusion chromatography. Fractions representing monomeric protein were pooled, concentrated, aliquoted, and frozen at −80° C. for use in subsequent experiments.
For inhibition assays, serially diluted test compound was added to these reactions in a 0.2% final concentration of DMSO. Final buffer concentrations were 30 mM HEPES pH 7.4, 30 mM NaCl, 0.3 mM CHAPS, 20 mM phosphate pH 7.0, 320 mM KF, 0.08% BSA). […] The binding inhibitory activity was shown by a decrease in 665 nm fluorescence relative to 620 nm. IC50 values were determined from a dose response curve.

Structure (SMILES) | FRET activity (<50 uM) (Brd4 bromodomain 1) | melting point [°C]
COc1cc(OC)c2c(=O)[nH]c(-c3ccc(CN4C(=O)CNC4=O)cc3)nc2c1 [Example 80, 3-(4-(5,7-Dimethoxy-4-oxo-3,4-dihydroquinazolin-2-yl)benzyl)imidazolidine-2,4-dione] | Inactive | 317 to 318
COCCOc1cc(OC)c2c(=O)[nH]c(-c3ccc(N4C[C@@H](C)N(C(C)=O)[C@@H](C)C4)cc3)nc2c1 [Example 9, 2-(4-((3R,5S)-4-Acetyl-3,5-dimethylpiperazin-1-yl)phenyl)-5-methoxy-7-(2-methoxyethoxy)quinazolin-4(3H)-one] | Active | 225 to 227
COCCOc1cc(OC)c2c(=O)[nH]c(-c3cc(C)nc(C)c3)nc2c1 [Example 100, 2-(2,6-Dimethylpyridin-4-yl)-5-methoxy-7-(2-methoxyethoxy)quinazolin-4(3H)-one] | Active | 228.8 to 230.4
COc1cc(OC)c2c(=O)[nH]c(-c3cc(C)c(OCCCCN4CCCC4)c(C)c3)nc2c1 [Example 78, 2-(3,5-Dimethyl-4-(4-(pyrrolidin-1-yl)butoxy)phenyl)-5,7-dimethoxyquinazolin-4(3H)-one] | Active | 180 to 181
Cc1cc(C)c2c(=O)[nH]c(-c3cc(C)c(OCCN4CCCC4)c(C)c3)nc2c1 [Example 89, 2-(3,5-Dimethyl-4-(2-(pyrrolidin-1-yl)ethoxy)phenyl)-5,7-dimethylquinazolin-4(3H)-one] | Active | 181 to 182
COc1cc(OC)c2c(=O)[nH]c(-c3cc(C)nc(C)c3)nc2c1 [Example 99, 2-(2,6-Dimethylpyridin-4-yl)-5,7-dimethoxyquinazolin-4(3H)-one] | Active | 291 to 292
COc1cc(OC)c2c(=O)[nH]c(-c3ccc(N4CCC(O)CC4)cc3)nc2n1 [Example 8, 2-(4-(4-Hydroxypiperidin-1-yl)phenyl)-5,7-dimethoxypyrido[2,3-d]pyrimidin-4(3H)-one] | Active | 284 to 286
COc1cc(OC)c2c(=O)[nH]c(-c3cc(C)c(OCCN4CCCCCC4)c(C)c3)nc2c1 [Example 84, 2-(4-(2-(Azepan-1-yl)ethoxy)-3,5-dimethylphenyl)-5,7-dimethoxyquinazolin-4(3H)-one] | Active | 198 to 199
Cc1cc(-c2nc3cccc(Cl)c3c(=O)[nH]2)cc(C)c1OCCN1CCCC1 [Example 83, 5-Chloro-2-(3,5-dimethyl-4-(2-(pyrrolidin-1-yl)ethoxy)phenyl)quinazolin-4(3H)-one] | Inactive | 179 to 180
COc1ccc2c(=O)[nH]c(-c3cc(C)c(OCCN4CCCC4)c(C)c3)nc2c1 [Example 70, 2-(3,5-Dimethyl-4-(2-(pyrrolidin-1-yl)ethoxy)phenyl)-7-methoxyquinazolin-4(3H)-one] | Inactive | 218 to 220
COc1cc(OCCN2CCCC2)c2c(=O)[nH]c(-c3cc(C)nc(C)c3)nc2c1 [Example 102, 2-(2,6-Dimethylpyridin-4-yl)-7-methoxy-5-(2-(pyrrolidin-1-yl)ethoxy)quinazolin-4(3H)-one] | Active | 190 to 191
COc1cc(OCCN2CCCC2)cc2nc(-c3cc(C)nc(C)c3)[nH]c(=O)c12 [Example 106, 2-(2,6-Dimethylpyridin-4-yl)-5-methoxy-7-(2-(pyrrolidin-1-yl)ethoxy)quinazolin-4(3H)-one] | Active | 227 to 229
COCCOc1cc(OCCN2CCCC2)c2c(=O)[nH]c(-c3cc(C)nc(C)c3)nc2c1 [Example 111, 2-(2,6-Dimethylpyridin-4-yl)-7-(2-methoxyethoxy)-5-(2-(pyrrolidin-1-yl)ethoxy)quinazolin-4(3H)-one] | Active | 60.4 to 62.3
COc1cc(OC)c2c(=O)[nH]c(-c3cc(C)c(OCCn4ccnc4)c(C)c3)nc2c1 [Example 69, 2-(4-(2-(1H-Imidazol-1-yl)ethoxy)-3,5-dimethylphenyl)-5,7-dimethoxyquinazolin-4(3H)-one] | Active | 218 to 219
COc1cc(OC)c2c(=O)[nH]c(-c3ccc(Cc4nnn[nH]4)cc3)nc2c1 [Example 96, 2-(4-((1H-Tetrazol-5-yl)methyl)phenyl)-5,7-dimethoxyquinazolin-4(3H)-one] | Active | 295 to 296
Cc1cc(-c2nc3cc(OC(C)C)cc(OC(C)C)c3c(=O)[nH]2)cc(C)c1OCCN1CCCC1 [Example 88, 2-(3,5-Dimethyl-4-(2-(pyrrolidin-1-yl)ethoxy)phenyl)-5,7-diisopropoxyquinazolin-4(3H)-one] | Inactive | 65 to 68

Structure (SMILES) | FRET activity (<50 uM) (Brd4 bromodomain 1) | melting point [°C]
COc1cc(OCCOC(C)C)cc2nc(-c3cc(C)nc(C)c3)[nH]c(=O)c12 [Example 107, 2-(2,6-Dimethylpyridin-4-yl)-7-(2-isopropoxyethoxy)-5-methoxyquinazolin-4(3H)-one] | – | 188 to 189
Cc1cc(-c2nc3cc(OCCOC(C)C)cc(OCCOC(C)C)c3c(=O)[nH]2)cc(C)n1 [Example 108, 2-(2,6-dimethylpyridin-4-yl)-5,7-bis(2-isopropoxyethoxy)quinazolin-4(3H)-one] | Active | 124 to 125
COc1cc(OC)c2c(=O)[nH]c(-c3cc(C)c(OCCN4C(=O)NC(c5ccccc5)C4=O)c(C)c3)nc2c1 (centres unmarked) [Example 79, 3-(2-(4-(5,7-Dimethoxy-4-oxo-3,4-dihydroquinazolin-2-yl)-2,6-dimethylphenoxy)ethyl)-5-phenylimidazolidine-2,4-dione] | Active | 219.6 to 221.4
COc1cccc2nc(-c3cc(C)c(OCCN4CCCC4)c(C)c3)[nH]c(=O)c12 [Example 66, 2-(3,5-Dimethyl-4-(2-(pyrrolidin-1-yl)ethoxy)phenyl)-5-methoxyquinazolin-4(3H)-one] | Active | 157 to 158
COCCOc1cc(OC)c2c(=O)[nH]c(-c3ccnc(C)c3)nc2c1 [Example 110, 5-methoxy-7-(2-methoxyethoxy)-2-(2-methylpyridin-4-yl)quinazolin-4(3H)-one] | Active | 260 to 262
COc1cc(OCCOc2ccccc2)cc2nc(-c3cc(C)nc(C)c3)[nH]c(=O)c12 [Example 103, 2-(2,6-Dimethylpyridin-4-yl)-5-methoxy-7-(2-phenoxyethoxy)quinazolin-4(3H)-one] | Active | 223 to 224
COc1cc(OCCOCc2ccccc2)cc2nc(-c3cc(C)nc(C)c3)[nH]c(=O)c12 [Example 109, 7-(2-(Benzyloxy)ethoxy)-2-(2,6-dimethylpyridin-4-yl)-5-methoxyquinazolin-4(3H)-one] | Active | 178 to 180
COc1cc(OC)c2c(=O)[nH]c(-c3cccc(OCCO)c3)nc2c1 [Example 112, 2-(3-(2-Hydroxyethoxy)phenyl)-5,7-dimethoxyquinazolin-4(3H)-one] | Active | 244.8 to 246
COc1cc(OC)c2c(=O)[nH]c(-c3cc(C)c(OCCN4CCN(C)CC4)c(C)c3)nc2c1 [Example 71, 2-(3,5-Dimethyl-4-(2-(4-methylpiperazin-1-yl)ethoxy)phenyl)-5,7-dimethoxyquinazolin-4(3H)-one] | Active | 180 to 182
COc1cc(OC)c2c(=O)[nH]c(-c3cc(C)c(OCCN4CCCC4)c(C)c3)nc2n1 | – | 228 to 230
COc1cc(OC)c2c(=O)[nH]c(-c3cc(C)c(OCCN4CCN(C(C)=O)CC4)c(C)c3)nc2c1 [Example 68, 2-(4-(2-(4-Acetylpiperazin-1-yl)ethoxy)-3,5-dimethylphenyl)-5,7-dimethoxyquinazolin-4(3H)-one] | Active | 213 to 214
CCCCCC(=O)N1CCN(c2ccc(-c3nc4cc(OC)cc(OC)c4c(=O)[nH]3)cc2)CC1 [Example 16, 2-(4-(4-Hexanoylpiperazin-1-yl)phenyl)-5,7-dimethoxyquinazolin-4(3H)-one] | Inactive | –
COc1cc(OC)c2c(=O)[nH]c(-c3ccc(N4CCN(C(=O)c5cccnc5)CC4)cc3)nc2c1 [Example 22, 5,7-Dimethoxy-2-(4-(4-nicotinoylpiperazin-1-yl)phenyl)quinazolin-4(3H)-one] | Active | –
COc1cc(OC)c2c(=O)[nH]c(-c3ccc(N4CCC(NC(C)=O)CC4)cc3)nc2c1 [Example 13, N-(1-(4-(5,7-Dimethoxy-4-oxo-3,4-dihydroquinazolin-2-yl)phenyl)piperidin-4-yl)acetamide] | Active | –
COc1cc(OC)c2c(=O)[nH]c(-c3ccc(N4CCN(Cc5ccccc5)CC4)cc3)nc2c1 [Example 30, 2-(4-(4-Benzylpiperazin-1-yl)phenyl)-5,7-dimethoxyquinazolin-4(3H)-one] | Inactive | –
